Legend:
[1] = xn = mol fraction of the nth substance listed; conditions: 101 kPa, Liquid, x2 = 0; for speed of sound: Frequency=2.75 MHz, Pulse-echo method; for mass density: Vibrating tube method
[2] = refractive index (Na D-line) (dimensionless); conditions: 298.15 K; 101.33 kPa; Liquid; Standard Abbe refractometry
[3] = 101 kPa, Liquid; for speed of sound: Frequency=2.75 MHz, Pulse-echo method; for mass density: Vibrating tube method

CC#N [acetonitrile] + CCCC[n+]1ccn(C)c1.O=S(=O)([N-]S(=O)(=O)C(F)(F)F)C(F)(F)F
[1]
Conditions	mass density [kg/m3]	speed of sound [m/s]
293.15 K	782	1298.2
298.15 K	776.6	1277.7
303.15 K	771.18	1257.2
308.15 K	765.72	1236.9
313.15 K	760.24	1216.6

C1CCOC1 [tetrahydrofuran] + CCCC[n+]1ccn(C)c1.O=S(=O)([N-]S(=O)(=O)C(F)(F)F)C(F)(F)F
[1]
Conditions	mass density [kg/m3]	speed of sound [m/s]
293.15 K	887.52	1301.9
298.15 K	882.06	1277.5
303.15 K	876.57	1253.2
308.15 K	871.04	1229

C1CCOC1 [tetrahydrofuran]
Conditions	refractive index
[2]	1.4052

[3]
Conditions	mass density [kg/m3]	speed of sound [m/s]
293.15 K	887.52	1301.9
298.15 K	882.06	1277.5
303.15 K	876.57	1253.2
308.15 K	871.04	1229

CCCC[n+]1ccn(C)c1.O=S(=O)([N-]S(=O)(=O)C(F)(F)F)C(F)(F)F
Conditions	refractive index
[2]	1.4265

[3]
Conditions	mass density [kg/m3]	speed of sound [m/s]
293.15 K	1439.23	1237.9
298.15 K	1434.44	1226.7
303.15 K	1429.65	1215.6
308.15 K	1424.88	1204.6
313.15 K	1420.12	1193.7

CC#N [acetonitrile]
Conditions	refractive index
[2]	1.3416

[3]
Conditions	mass density [kg/m3]	speed of sound [m/s]
293.15 K	782	1298.2
298.15 K	776.6	1277.7
303.15 K	771.18	1257.2
308.15 K	765.72	1236.9
313.15 K	760.24	1216.6

Reference: the NIST ThermoML archive (doi:10.1021/je400781b)
